In brackets after ≈: the same amount, converted by molar mass. Numbered stars: 1 amine (or outer) side, 2 acyl side, 3 side chain; on linkers, the order of the positions; unused ones are H or OH. Square brackets hold non-standard residues; d marks the D form. Peptide text beside a SMILES is read from it. * marks the point of attachment. X8 = NC(=O)CN(C[C@H](Cc1ccccc1)N*)S(=O)(=O)c1cc(C(F)(F)F)cc(C(F)(F)F)c1; X6 = CC(C)C[C@@H](CN(CC(N)=O)S(=O)(=O)c1cc(C(F)(F)F)cc(C(F)(F)F)c1)N*; X5 = NC(=O)CN(C[C@H](Cc1ccccc1)N*)S(=O)(=O)c1ccc(C(F)(F)F)cc1; X4 = N[C@@H](Cc1ccccc1)CN(CC(=O)[*:2])[*:1]; X1 = O=S(=O)(c1ccc(C(F)(F)F)cc1)*
Columns and labels:
[1] = tested on: Erythrocyte; assay: Hemolytic activity against mouse Red blood cell incubated for 1 hr; format: toxicity, cell-based
[2] = tested on: Staphylococcus aureus; assay: Antimicrobial activity against methicillin-resistant Staphylococcus aureus ATCC 33591 assessed as inhibition of visible bacterial growth incubated for 18 hrs by broth-dilution method; format: functional
[3] = tested on: Bacillus subtilis; assay: Antimicrobial activity against Bacillus subtilis ATCC 23857 assessed as inhibition of visible bacterial growth incubated for 18 hrs by broth-dilution method; format: functional
[4] = tested on: Acinetobacter baumannii; assay: Antimicrobial activity against Acinetobacter baumannii ATCC 19606 assessed as inhibition of visible bacterial growth incubated for 18 hrs by broth-dilution method; format: functional
[5] = Stability in human serum assessed as half life measured for 5 hrs by RP-HPLC analysis; format: ADME, cell-free
[6] = tested on: Salmonella typhimurium; assay: Antimicrobial activity against Salmonella typhimurium ATCC 14028 assessed as inhibition of visible bacterial growth incubated for 18 hrs by broth-dilution method; format: functional, Salmonella enterica subsp. enterica serovar Typhimurium; settings: Salmonella enterica
[7] = tested on: Pseudomonas aeruginosa; assay: Antimicrobial activity against Pseudomonas aeruginosa ATCC 27853 assessed as inhibition of visible bacterial growth incubated for 18 hrs by broth-dilution method; format: functional
[8] = tested on: Staphylococcus aureus; assay: Antimicrobial activity against Staphylococcus aureus ATCC 25923 assessed as inhibition of visible bacterial growth incubated for 18 hrs by broth-dilution method; format: functional
[9] = tested on: Escherichia coli; assay: Antimicrobial activity against Escherichia coli ATCC 25922 assessed as inhibition of visible bacterial growth incubated for 18 hrs by broth-dilution method; format: functional
[10] = tested on: Staphylococcus epidermidis; assay: Antimicrobial activity against Staphylococcus epidermidis ATCC 12228 assessed as inhibition of visible bacterial growth incubated for 18 hrs by broth-dilution method; format: functional
[11] = tested on: Staphylococcus aureus; assay: Antimicrobial activity against Staphylococcus aureus ATCC 25923 assessed as fold change in MIC in presence of salt solution; format: functional
[12] = tested on: Staphylococcus aureus; assay: Antimicrobial activity against Staphylococcus aureus ATCC 25923 assessed as reduction in bacterial growth in presence of Ca2+; format: functional
[13] = tested on: Pseudomonas aeruginosa; assay: Antimicrobial activity against multidrug-resistant Pseudomonas aeruginosa 156 assessed as inhibition of visible bacterial growth incubated for 18 hrs by broth-dilution method; format: functional
[14] = tested on: Staphylococcus aureus; assay: Antimicrobial activity against methicillin-resistant Staphylococcus aureus 5 assessed as inhibition of visible bacterial growth incubated for 18 hrs by broth-dilution method; format: functional
[15] = tested on: Staphylococcus aureus; assay: Antimicrobial activity against methicillin-resistant Staphylococcus aureus 3 assessed as inhibition of visible bacterial growth incubated for 18 hrs by broth-dilution method; format: functional
[16] = tested on: Staphylococcus aureus; assay: Antimicrobial activity against methicillin-resistant Staphylococcus aureus 6 assessed as inhibition of visible bacterial growth incubated for 18 hrs by broth-dilution method; format: functional
[17] = tested on: Pseudomonas aeruginosa; assay: Antimicrobial activity against multidrug-resistant Pseudomonas aeruginosa 119 assessed as inhibition of visible bacterial growth incubated for 18 hrs by broth-dilution method; format: functional
[18] = tested on: Pseudomonas aeruginosa; assay: Antimicrobial activity against multidrug-resistant Pseudomonas aeruginosa 516 assessed as inhibition of visible bacterial growth incubated for 18 hrs by broth-dilution method; format: functional
[19] = tested on: Staphylococcus aureus; assay: Antimicrobial activity against methicillin-resistant Staphylococcus aureus 8 assessed as inhibition of visible bacterial growth incubated for 18 hrs by broth-dilution method; format: functional
[20] = tested on: Staphylococcus aureus; assay: Antimicrobial activity against methicillin-resistant Staphylococcus aureus 10 assessed as inhibition of visible bacterial growth incubated for 18 hrs by broth-dilution method; format: functional
[21] = tested on: Staphylococcus aureus; assay: Antimicrobial activity against methicillin-resistant Staphylococcus aureus 4 assessed as inhibition of visible bacterial growth incubated for 18 hrs by broth-dilution method; format: functional
[22] = tested on: Staphylococcus aureus; assay: Antimicrobial activity against methicillin-resistant Staphylococcus aureus 1 assessed as inhibition of visible bacterial growth incubated for 18 hrs by broth-dilution method; format: functional
[23] = tested on: Pseudomonas aeruginosa; assay: Antimicrobial activity against multidrug-resistant Pseudomonas aeruginosa 073 assessed as inhibition of visible bacterial growth incubated for 18 hrs by broth-dilution method; format: functional
[24] = tested on: Pseudomonas aeruginosa; assay: Antimicrobial activity against multidrug-resistant Pseudomonas aeruginosa 157 assessed as inhibition of visible bacterial growth incubated for 18 hrs by broth-dilution method; format: functional
[25] = tested on: Pseudomonas aeruginosa; assay: Antimicrobial activity against multidrug-resistant Pseudomonas aeruginosa 124 assessed as inhibition of visible bacterial growth incubated for 18 hrs by broth-dilution method; format: functional
[26] = tested on: Pseudomonas aeruginosa; assay: Antimicrobial activity against multidrug-resistant Pseudomonas aeruginosa 050 assessed as inhibition of visible bacterial growth incubated for 18 hrs by broth-dilution method; format: functional
[27] = tested on: Pseudomonas aeruginosa; assay: Antimicrobial activity against multidrug-resistant Pseudomonas aeruginosa 061 assessed as inhibition of visible bacterial growth incubated for 18 hrs by broth-dilution method; format: functional
[28] = tested on: Staphylococcus aureus; assay: Antimicrobial activity against methicillin-resistant Staphylococcus aureus 7 assessed as inhibition of visible bacterial growth incubated for 18 hrs by broth-dilution method; format: functional
[29] = tested on: Pseudomonas aeruginosa; assay: Antimicrobial activity against multidrug-resistant Pseudomonas aeruginosa 125 assessed as inhibition of visible bacterial growth incubated for 18 hrs by broth-dilution method; format: functional
[30] = tested on: Pseudomonas aeruginosa; assay: Antimicrobial activity against multidrug-resistant Pseudomonas aeruginosa 085 assessed as inhibition of visible bacterial growth incubated for 18 hrs by broth-dilution method; format: functional
[31] = tested on: Staphylococcus aureus; assay: Antimicrobial activity against methicillin-resistant Staphylococcus aureus 2 assessed as inhibition of visible bacterial growth incubated for 18 hrs by broth-dilution method; format: functional
[32] = tested on: Staphylococcus aureus; assay: Antimicrobial activity against methicillin-resistant Staphylococcus aureus 9 assessed as inhibition of visible bacterial growth incubated for 18 hrs by broth-dilution method; format: functional

Row | Compound | MHC [1] [µg/mL] | MIC [2] [µg/mL] | MIC [3] [µg/mL] | MIC [4] [µg/mL] | half-life [5] [min] | MIC [6] [µg/mL] | MIC [7] [µg/mL] | MIC [8] [µg/mL] | MIC [9] [µg/mL] | MIC [10] [µg/mL] | fold change (FC) [11] | MIC [12] [µg/mL] | also measured
1 | CC(C)C[C@H](NC(=O)[C@H](CC(C)C)NC(=O)[C@H](CCCCN)NC(=O)[C@H](CC(C)C)NC(=O)[C@@H](N)Cc1ccccc1)C(=O)N[C@@H](CCCCN)C(=O)N[C@@H](CCCCN)C(=O)N[C@@H](Cc1ccccc1)CN(CC(N)=O)S(=O)(=O)c1cc(C(F)(F)F)cc(C(F)(F)F)c1 (H-FLKLLKK-X8) | 64 | 4 (≈ 2.95 µM) | 4 (≈ 2.95 µM) | 16 (≈ 11.8 µM) | 199 | 8 (≈ 5.91 µM) | 16 (≈ 11.8 µM) | 4 (≈ 2.95 µM) | 8 (≈ 5.91 µM) | 4 (≈ 2.95 µM) | – | – | –
2 | CC(C)C[C@H](NC(=O)[C@H](CC(C)C)NC(=O)[C@H](CCCCN)NC(=O)[C@H](CCCCN)NC(=O)[C@H](CC(C)C)NC(=O)[C@H](CC(C)C)NC(=O)[C@H](CCCCN)NC(=O)CN(C[C@@H](N)Cc1ccccc1)S(=O)(=O)c1ccc(C(F)(F)F)cc1)C(N)=O (X1-[X4]KLLKKLL-NH2) | 32 | 4 (≈ 3.19 µM) | 4 (≈ 3.19 µM) | 16 (≈ 12.8 µM) | 477 | 8 (≈ 6.39 µM) | 8 (≈ 6.39 µM) | 8 (≈ 6.39 µM) | 8 (≈ 6.39 µM) | 4 (≈ 3.19 µM) | 0.25 | 32 | –
3 | H-FLKLLKKLL-NH2 | 256 | 16 | 4 | 16 | 65.5 | 16 | 8 | 16 | 32 | 16 | – | – | MIC [13]: 8 µg/mL; MIC [14]: 8 µg/mL; MIC [15]: 4 µg/mL; MIC [16]: 8 µg/mL; MIC [17]: 4 µg/mL; MIC [18]: 8 µg/mL; MIC [19]: 8 µg/mL; MIC [20]: 4 µg/mL; MIC [21]: 8 µg/mL; MIC [22]: 4 µg/mL; MIC [23]: 8 µg/mL; MIC [24]: 8 µg/mL; MIC [25]: 8 µg/mL; MIC [26]: 8 µg/mL; MIC [27]: 8 µg/mL; MIC [28]: 4 µg/mL; MIC [29]: 8 µg/mL; MIC [30]: 8 µg/mL; MIC [31]: 8 µg/mL; MIC [32]: 4 µg/mL
4 | CC(C)C[C@@H](CN(CC(N)=O)S(=O)(=O)c1cc(C(F)(F)F)cc(C(F)(F)F)c1)NC(=O)[C@H](CCCCN)NC(=O)[C@H](CCCCN)NC(=O)[C@H](CC(C)C)NC(=O)[C@H](CC(C)C)NC(=O)[C@H](CCCCN)NC(=O)[C@H](CC(C)C)NC(=O)[C@@H](N)Cc1ccccc1 (H-FLKLLKK-X6) | 128 | 4 (≈ 3.03 µM) | 16 (≈ 12.1 µM) | 8 (≈ 6.06 µM) | 134 | 8 (≈ 6.06 µM) | 8 (≈ 6.06 µM) | 8 (≈ 6.06 µM) | 8 (≈ 6.06 µM) | 16 (≈ 12.1 µM) | 0.25 | 32 | –
5 | CC(C)C[C@H](NC(=O)[C@H](C)NC(=O)[C@H](CCCCN)NC(=O)[C@H](CC(C)C)NC(=O)[C@@H](N)Cc1ccccc1)C(=O)N[C@@H](CCCCN)C(=O)N[C@@H](CCCCN)C(=O)N[C@@H](Cc1ccccc1)CN(CC(N)=O)S(=O)(=O)c1cc(C(F)(F)F)cc(C(F)(F)F)c1 (H-FLKALKK-X8) | 256 | 16 (≈ 12.2 µM) | 16 (≈ 12.2 µM) | 128 (≈ 97.5 µM) | – | 32 (≈ 24.4 µM) | 16 (≈ 12.2 µM) | 16 (≈ 12.2 µM) | 32 (≈ 24.4 µM) | 16 (≈ 12.2 µM) | – | – | –
6 | CC(C)C[C@H](NC(=O)[C@H](CC(C)C)NC(=O)[C@H](CCCCN)NC(=O)[C@H](CC(C)C)NC(=O)[C@@H](N)Cc1ccccc1)C(=O)N[C@@H](CCCCN)C(=O)N[C@@H](CCCCN)C(=O)N[C@@H](Cc1ccccc1)CN(CC(N)=O)S(=O)(=O)c1ccc(C(F)(F)F)cc1 (H-FLKLLKK-X5) | 128 | 8 (≈ 6.22 µM) | 4 (≈ 3.11 µM) | 16 (≈ 12.4 µM) | 157 | 16 (≈ 12.4 µM) | 8 (≈ 6.22 µM) | 8 (≈ 6.22 µM) | 32 (≈ 24.9 µM) | 4 (≈ 3.11 µM) | 0.25 | 32 | –

— ChEMBL document CHEMBL5537135, “Novel antimicrobial peptides modified with fluorinated sulfono-γ-AA having high stability and targeting multidrug-resistant bacteria infections” (Eur J Med Chem, 2024)
